The values that follow come from article PMC6141879, “How Does the Sweet Violet (Viola odorata L.) Fight Pathogens and Pests – Cyclotides as a Comprehensive Plant Host Defense System” (Frontiers in Plant Science, 2018).

One test relates to Botrytis cinerea. To be noted: 48 h.
The subject of another test is Fusarium graminearum. To be noted: 48 h.
For a further test, the system named is Fusarium culmorum. To be noted: 48 h.
The next test deals with Mycosphaerella fragariae. To be noted: 48 h.
The test system of test [1] is Pseudomonas syringae pv. syringae strain Pss-762. Nature of the test: Antibacterial MIC assay (CLSI), P. syringae pv. syringae. Format: cell-based. To be noted: M9 minimal medium with 0.4% glucose, 24 h, 28°C, 1.5 × 10^6 CFU ml^-1, OD600 < 0.1, triplicate, repeated three times. How it is done:
Cyclotides (cycloviolacin O2, O3, and O19) at concentrations of 0.78–100 μM were tested for activity against three bacterial plant pathogens: Pseudomonas syringae pv. syringae strain Pss-762 ([Taraszkiewicz et al., 2012]), Dickeya dadantii strain 3937 ([Glasner et al., 2011]) and Pectobacterium atrosepticum SCRI 1043 ([Bell et al., 2004]). Experiments were conducted according to the CLSI guidelines ([Clinical and Laboratory Standards Institute [CLSI], 2012]) using standard CA-MHB medium (BBL^TM Mueller-Hinton II Broth cation-adjusted, Becton Dickinson) or M9 minimal medium (per L: 6 g Na2HPO4, 3g KH2PO4, 0.5 g NaCl, 1 g NH4Cl) supplemented with glucose to a final concentration of 0.4%. Bacterial colonies from 24 h old cultures on TSA (trypticase soy agar, BioMerieux) plates were used to inoculate CA-MHB or M9 minimal medium and set up liquid cultures. Next, late log phase bacterial cultures were diluted to 0.5 McFarland standard, as determined by densimetry in the relevant medium (DensiMeter II, EMO, Brno). […] The minimal inhibitory concentration (MIC) of each cyclotide was determined as the lowest concentration required to inhibit bacterial growth, i.e., to reduce the culture’s OD600 to less than 0.1. OD600 values were measured with a microplate reader (EnVision^TM Multilabel Plate Reader, Perkin Elmer). […]

Test [2] has as its system Colletotrichum utrechtense. To be noted: 72 h.
The subject of a further test is Alternaria alternata. To be noted: 72 h.
Test [3] relates to seven fungal plant pathogens. To be noted: 0 h.
In test [4] the test system is Dickeya dadantii strain 3937. To be noted: 24 h.
The test system of test [5] is Pectobacterium atrosepticum SCRI 1043. To be noted: 24 h.
Test [6] is described as follows: Liposome leakage assay, fungal membrane model. To be noted: read-out: EC50 of liposome permeabilization (carboxyfluorescein leakage); S. cerevisiae polar lipid extract:ergosterol 7:3 liposomes, Tris buffer, 45 min, % of Triton X-100 leakage, triplicate.

≈ marks a conversion by molar mass, not a printed value. Where a SMILES comes first, the peptide text is derived from it. Bridges are numbered along the chain shown (N, C = ends).

For the compound `CC(C)C[C@@H]1NC(=O)CNC(=O)[C@H](CC(N)=O)NC(=O)[C@H](CCCNC(=N)N)NC(=O)[C@H]([C@@H](C)O)NC(=O)[C@@H]2CSSC[C@@H]3NC(=O)[C@H]([C@@H](C)O)NC(=O)CNC(=O)CNC(=O)[C@H](C(C)C)NC(=O)[C@@H]4CSSC[C@H](NC(=O)[C@H](CO)NC(=O)[C@H](CSSC[C@H](NC(=O)[C@H](C(C)C)NC(=O)[C@@H]5CCCN5C1=O)C(=O)NCC(=O)N[C@@H](CCC(=O)O)C(=O)N[C@@H]([C@@H](C)O)C(=O)N4)NC(=O)CNC(=O)[C@@H]1CCCN1C(=O)[C@H]([C@@H](C)O)NC(=O)[C@H](CC(N)=O)NC3=O)C(=O)N[C@@H](CO)C(=O)N[C@@H](Cc1c[nH]c3ccccc13)C(=O)N1CCC[C@H]1C(=O)N[C@@H](C(C)C)C(=O)N2` [varv A], the MIC (commonly the lowest concentration that inhibits growth of the organism) against Botrytis cinerea is 80 µM (≈ 230 µg/mL); in the test with Fusarium graminearum, 40 µM (≈ 115 µg/mL); in the test on Fusarium culmorum, 40 µM (≈ 115 µg/mL); in the test with Mycosphaerella fragariae, over 80 µM.
As for `CC[C@H](C)[C@@H]1NC(=O)[C@H](C)NC(=O)[C@H](CO)NC(=O)[C@H]([C@@H](C)O)NC(=O)[C@H](CC(C)C)NC(=O)[C@@H]2CSSC[C@@H]3NC(=O)[C@H](C(C)C)NC(=O)[C@H](CCCCN)NC(=O)[C@H](CO)NC(=O)[C@H](CCCCN)NC(=O)[C@@H]4CSSC[C@H](NC(=O)[C@H](CO)NC(=O)[C@H](CCC(=O)O)NC(=O)CNC(=O)[C@H](CSSC[C@H](NC(=O)CNC1=O)C(=O)N[C@@H](CO)C(=O)N4)NC(=O)[C@@H]1CCCN1C(=O)[C@H]([C@@H](C)CC)NC(=O)CNC(=O)[C@H](CC(N)=O)NC(=O)[C@H](CCCNC(=N)N)NC(=O)[C@H](Cc1ccc(O)cc1)NC3=O)C(=O)N[C@@H](C(C)C)C(=O)N[C@@H](Cc1c[nH]c3ccccc13)C(=O)N[C@@H]([C@@H](C)CC)C(=O)N1CCC[C@H]1C(=O)N2` [cyO3] (cyclo(AIGCSCKSKVCYRNGIPCGESCVWIPCLTS); disulfide 4-18, 6-22, 11-27), the MIC in [1] amounted to 25 µM (≈ 78.9 µg/mL); against Botrytis cinerea, 1.5 µM (≈ 4.73 µg/mL); in test [2], 6.25 µM (≈ 19.7 µg/mL); with Alternaria alternata it was 0.8 µM (≈ 2.52 µg/mL); in [4], 75 µM (≈ 237 µg/mL); in test [5], 100 µM (≈ 315 µg/mL). Further, in test [3], the “MICs, range or bound over the tested fungi” value fell in the range of 0.8 to 12.5 µM. For the same compound, the EC50 (in general, the concentration that produces a half-maximal response) in test [6] was found to be 67 nM.
On to `CC[C@H](C)[C@@H]1NC(=O)[C@@H]2CSSC[C@@H]3NC(=O)[C@H](C(C)C)NC(=O)[C@H](CCCCN)NC(=O)[C@H](CO)NC(=O)[C@H](CCCCN)NC(=O)[C@@H]4CSSC[C@H](NC(=O)[C@H](CO)NC(=O)[C@H](CCC(=O)O)NC(=O)CNC(=O)[C@H](CSSC[C@H](NC(=O)CNC(=O)[C@H](C(C)C)NC(=O)[C@H](C(C)C)NC(=O)[C@H](CO)NC(=O)[C@H](CO)NC1=O)C(=O)N[C@@H](CO)C(=O)N4)NC(=O)[C@@H]1CCCN1C(=O)[C@H](CC(C)C)NC(=O)[C@H]([C@@H](C)O)NC(=O)CNC(=O)[C@H](CC(=O)O)NC(=O)[C@H](CCCCN)NC(=O)[C@H](Cc1ccc(O)cc1)NC3=O)C(=O)N[C@@H](C(C)C)C(=O)N[C@@H](Cc1c[nH]c3ccccc13)C(=O)N[C@@H]([C@@H](C)CC)C(=O)N1CCC[C@H]1C(=O)N2` [cyO19] (cyclo(CGESCVWIPCISSVVGCSCKSKVCYKDGTLP); disulfide 1-17, 5-19, 10-24), for which the MIC in test [1] is 25 µM (≈ 80.7 µg/mL); in the test on Botrytis cinerea it was 1.5 µM (≈ 4.84 µg/mL); against Fusarium graminearum, 12.5 µM (≈ 40.4 µg/mL); in the test on Fusarium culmorum, 1.5 µM (≈ 4.84 µg/mL); in the test with Mycosphaerella fragariae, over 25 µM; in [2], 6.25 µM (≈ 20.2 µg/mL). Moreover, the results for the MIC (with Alternaria alternata; in test [4]; in [5]) were 1.5 µM (≈ 4.84 µg/mL), 75 µM (≈ 242 µg/mL) and 100 µM (≈ 323 µg/mL), respectively. Also, in [6], the EC50 came out at 80 nM.
Take `CC(C)C[C@@H]1NC(=O)CNC(=O)[C@H](CC(N)=O)NC(=O)[C@H](CCCNC(=N)N)NC(=O)[C@H]([C@@H](C)O)NC(=O)[C@@H]2CSSC[C@@H]3NC(=O)[C@H]([C@@H](C)O)NC(=O)CNC(=O)CNC(=O)[C@H](C(C)C)NC(=O)[C@@H]4CSSC[C@H](NC(=O)[C@H]([C@@H](C)O)NC(=O)[C@H](CSSC[C@H](NC(=O)[C@H](C(C)C)NC(=O)[C@@H]5CCCN5C1=O)C(=O)NCC(=O)N[C@@H](CCC(=O)O)C(=O)N[C@@H]([C@@H](C)O)C(=O)N4)NC(=O)CNC(=O)[C@@H]1CCCN1C(=O)[C@H]([C@@H](C)O)NC(=O)[C@H](CC(N)=O)NC3=O)C(=O)N[C@@H](CO)C(=O)N[C@@H](Cc1c[nH]c3ccccc13)C(=O)N1CCC[C@H]1C(=O)N[C@@H](C(C)C)C(=O)N2` [kB1, kalata B1]: the MIC with Botrytis cinerea was 80 µM (≈ 231 µg/mL); against Fusarium graminearum, over 80 µM; in the test with Fusarium culmorum, over 80 µM; against Mycosphaerella fragariae it was over 80 µM.
Turning to `CC[C@H](C)[C@@H]1NC(=O)[C@H](C)NC(=O)[C@H](C)NC(=O)[C@H](CO)NC(=O)[C@H]([C@@H](C)CC)NC(=O)[C@@H]2CSSC[C@@H]3NC(=O)[C@H](C(C)C)NC(=O)[C@H](CCCCN)NC(=O)[C@H](CO)NC(=O)[C@H](CCCCN)NC(=O)[C@@H]4CSSC[C@H](NC(=O)[C@H](CO)NC(=O)[C@H](CCC(=O)O)NC(=O)CNC(=O)[C@H](CSSC[C@H](NC(=O)CNC1=O)C(=O)N[C@@H](CO)C(=O)N4)NC(=O)[C@@H]1CCCN1C(=O)[C@H]([C@@H](C)CC)NC(=O)CNC(=O)[C@H](CC(N)=O)NC(=O)[C@H](CCCNC(=N)N)NC(=O)[C@H](Cc1ccc(O)cc1)NC3=O)C(=O)N[C@@H](C(C)C)C(=O)N[C@@H](Cc1c[nH]c3ccccc13)C(=O)N[C@@H]([C@@H](C)CC)C(=O)N1CCC[C@H]1C(=O)N2` [cyO13] (cyclo(AAIGCSCKSKVCYRNGIPCGESCVWIPCIS); disulfide 5-19, 7-23, 12-28), the MIC in the test with Botrytis cinerea was 3 µM (≈ 9.37 µg/mL); in [2], 6.25 µM (≈ 19.5 µg/mL); against Alternaria alternata, 3 µM (≈ 9.37 µg/mL). For the same compound, the EC50 in [6] amounted to 130 nM.
